Laboratory results published in ChEMBL document CHEMBL1201862, “PubChem BioAssay data set” (2004).
Calls of active or inactive are those of the source. Rule as the data show it, for most assays here: active = IC50 of 20 µM or less and inactive = more.

Tests used:
[1] = biological target: Dual specificity protein kinase CLK1 (Homo sapiens, UniProt P49759); assay: CLK1 kinase inhibitors, off-target check, dose response, selectivity assay for Dyrk1A inhibitor project, biochemical, cherry-picked samples (AID 588811)
[2] = test system: Jurkat; assay: SAR Analysis of small molecule inhibitors of T-cell specific antigen receptor-induced NF-kB activation in a Jurkat cell line using a luminescence assay - Set 2. [Related pubchem assays (depositor defined):AID435003, AID435012, AID465]; assay type: functional, cell-based; conditions: Homo sapiens
[3] = test system: HEK293; assay: SAR Analysis of small molecule inhibitors of T-cell specific antigen receptor-induced NF-kB activation in a HEK-293T cell line using a luminescence assay - Set 2. [Related pubchem assays (depositor defined):AID435003, AID435012, AID489026]; assay type: functional, cell-based; conditions: Homo sapiens
[4] = test system: HEK293; assay: cytotoxicity in HEK293T NF-kB-Luc cells, SAR follow-up, cytotoxicity control for NF-kB activator project, cell-based, resazurin fluorescence (AID 493251); assay type: functional
[5] = cytotoxicity in HEK-293T cells, dose response, cytotoxicity control for BCR NF-kB inhibitor project, luminescence, B-cell screen hits (AID 489021); assay type: functional, cell-based;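 also: HEK-293T cells carrying an NF-kB luciferase reporter; cells exposed to compound for about 14 hours before viability readout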

Sequence of Dual specificity protein kinase CLK1 (P49759 whole entry): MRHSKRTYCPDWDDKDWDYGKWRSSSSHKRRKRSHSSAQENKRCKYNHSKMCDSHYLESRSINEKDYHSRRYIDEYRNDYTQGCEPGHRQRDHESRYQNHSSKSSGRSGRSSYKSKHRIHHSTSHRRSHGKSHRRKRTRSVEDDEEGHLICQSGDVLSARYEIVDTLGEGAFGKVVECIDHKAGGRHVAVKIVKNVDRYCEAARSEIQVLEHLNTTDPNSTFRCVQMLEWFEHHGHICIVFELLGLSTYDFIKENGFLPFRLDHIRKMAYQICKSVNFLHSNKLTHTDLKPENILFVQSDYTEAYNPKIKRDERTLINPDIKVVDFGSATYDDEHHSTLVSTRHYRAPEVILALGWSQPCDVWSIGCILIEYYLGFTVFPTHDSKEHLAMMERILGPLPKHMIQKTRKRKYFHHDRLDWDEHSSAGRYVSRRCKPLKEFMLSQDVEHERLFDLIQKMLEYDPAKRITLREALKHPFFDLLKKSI

SMILES | AC50 [1] | IC50 [2] | IC50 [3] | IC50 ([4]; Homo sapiens, HEK293) | IC50 ([4]; hek293) | IC50 [5]
c1cncc(-c2nc(NCc3ccco3)c3ccccc3n2)c1 | 17.9 µM (active) | – | – | – | – | –
CCNC(=O)CCc1nc(-c2ccc(C(C)(C)C)cc2)no1 | – | > 79 µM (inactive) | 34 µM (inactive) | 76.1 µM (inactive) | 79.3 µM (inactive) | > 80 µM (inactive)
CCCOc1ccc(C(=O)Nc2ccc(NC(=O)c3cc4ccccc4o3)cc2)cc1 | – | > 79 µM (inactive) | > 80 µM (inactive) | > 80 µM (inactive) | – | –
Clc1ccc(Nc2nccc(-c3ccc4c(c3)OCO4)n2)cc1 | 15.8 µM (active) | – | – | – | – | –
